We go through three compounds from US8859567B2, “Hydrate of 1-{(2S)-2-amino-4-[2,4-bis(trifluoromethyl)-5,8-di-hydropyrido[3,4-D]pyrimidin-7(6H)-yl]-4-oxobutyl}-5,5-difluoro-piperidin-2-one tartrate” (LG Life Sciences Ltd., priority 2010, dated 2014).

What all share (format): physicochemical
A short description of data set [1]: Determination of density (bulk-density, tap-density, Carr index). To be noted: for Bulk-density: 50 ml measuring cylinder; for Tap-density: ERWEKA densitometer, impulses 250 times. The procedure:
Here, the samples were slowly introduced so that they are not closely contacted with each other. After reading a scale on the measuring cylinder, the weight thereof was measured to calculate the bulk-density. After measuring the bulk-density, the measuring cylinder containing the sample was put on ERWEKA densitometer and then subjected to impulses 250 times to measure the tapdensity (Table 5). […] The Can index was calculated from the bulk-density and the tap-density. […] Since it is generally understood that the lower the Carr index, the better the flowability, it could be identified by comparing the Carr indexes that the crystal form I can be easily handled in processing procedures including tabletting as compared to the crystal form II.

Data set [2] is described as follows: Thermal stability of the crystal form I and II, HPLC analysis. The procedure: After 2 weeks, 4 weeks and 8 weeks, each sample was removed from Duma bottle and analyzed by XRD for identifying any change of the crystal form and HPLC for identifying the stability. For HPLC analysis the sample was dissolved in a mixture of acetonitrile/water/trifluoroacetic acid=30/70/0.1 (v/v/v) and then subjected to the analysis. The conditions for HPLC analysis are as follows:
Column: Atlantis dC18 (4.6 mm I.D×250 mm L, Particle Size 5, μm, Waters)
Column Temperature: 10° C.
Mobile phase A: MeCN/TFA=100/0.1 (v/v)
Mobile phase B: H2O/TFA=100/0.1 (v/v)
Total analysis time: 55 min.

Data set [3] can be described thus: Dynamic vapor adsorption/desorption analysis. To be noted: for change of crystal form with the change of humidity / weight change according to the change of external humidity: 5˜95% RH; for weight change according to the change of external humidity: 25° C. As for the experimental part: The dynamic vapor adsorption/desorption data were collected on VTI-SA Vapor Sorption Analyzer. While maintaining 25° C., the vapor adsorption and desorption were repeated three times at intervals of 5% RH in the range of relative humidity (RH) 5˜95%. The samples were not dried prior to the analysis. The equilibrium standard used for analysis was that the weight change within 2 minutes is less than 0.01%.

A short description of data set [4]: Thermal stability of the crystal form I and II, XRD analysis for change of crystal form. As for the experimental part: About 20 mg of the sample was charged in the sample holder and mounted on Powder X-ray diffractometer to obtain the diffraction pattern in the range of 3˜40°/2θ. The diffraction patterns as obtained are attached to the present specification as FIGS. 1, 5 and 10, respectively. Specific conditions for analysis are as follows.
After 2 weeks, 4 weeks and 8 weeks, each sample was removed from Duma bottle and analyzed by XRD for identifying any change of the crystal form and HPLC for identifying the stability. For HPLC analysis the sample was dissolved in a mixture of acetonitrile/water/trifluoroacetic acid=30/70/0.1 (v/v/v) and then subjected to the analysis.

The nature of data set [5]: Powder X-ray diffraction test and weight change of the crystal form III during moisture adsorption at room temperature under atmosphere. The procedure:
The crystal form III was placed on a XRD holder and subjected to XRD test over the time (after 30 minutes, 1 hour and 5 hours) while allowing the moisture adsorption at room temperature under atmosphere (see FIG. 15). In addition, the weight change at room temperature under atmosphere was recorded by times to obtain a graph (see FIG. 14).

Counter-ions that a name gives are not always drawn.

`N[C@@H](CC(=O)N1CCc2c(nc(C(F)(F)F)nc2C(F)(F)F)C1)CN1CC(F)(F)CCC1=O.N[C@@H](CC(=O)N1CCc2c(nc(C(F)(F)F)nc2C(F)(F)F)C1)CN1CC(F)(F)CCC1=O.O.O=C(O)C(O)C(O)C(=O)O.O=C(O)C(O)C(O)C(=O)O` [crystal form II] gave a Bulk-density in data set [1] of 0.34 g/mL. For the same compound, the Tap-density in data set [1] stood at 0.44 g/mL. Moreover, the stability (HPLC) in data set [2] (40° C./75% RH, 0 week) was determined as 98.4%; in data set [2] (40° C./75% RH, 2 weeks) it was 98.4%; in data set [2] (40° C./75% RH, 4 weeks), 98.3%; in data set [2] (40° C./75% RH, 8 weeks) it was 98.2%; in data set [2] (60° C./5% RH, 0 week), 98.4%; in data set [2] (60° C./5% RH, 2 weeks), 98.1%. Also, the stability (HPLC) in data set [2] (60° C./5% RH, 4 weeks) was determined as 97.8%; in data set [2] (60° C./5% RH, 8 weeks), 97.5%. Besides, the “change of crystal form with the change of humidity” value in data set [3] is “converted into the crystal form I”. Also, the “weight change according to the change of external humidity” value (“weight change according to the change” for short) in data set [3] was at least 4.0%. In addition, the “weight increase at 75% RH” value in data set [3] (moisture adsorption, 75% RH) stood at 3.7%. In data set [4] (40° C./75% RH), the “time to conversion into the crystal form I in the accelerating stability test” value is at most 8 weeks. Further, the “change of the crystal form by XRD analysis” value in data set [4] (40° C./75% RH, at 8 week) is recorded as “converted into the crystal form I”.
Take `N[C@@H](CC(=O)N1CCc2c(nc(C(F)(F)F)nc2C(F)(F)F)C1)CN1CC(F)(F)CCC1=O.O=C(O)C(O)C(O)C(=O)O` [crystal form III]: in data set [3], the “weight change according to the change” value is at least 3.5%. Also, the “moisture desorption on decreasing the humidity” value in data set [3] (after adsorption up to 95% RH) is on record as at most 0.6%. The “time to conversion into the crystal form I” value in data set [5] is “within about one hour”.
Regarding `N[C@@H](CC(=O)N1CCc2c(nc(C(F)(F)F)nc2C(F)(F)F)C1)CN1CC(F)(F)CCC1=O` [crystal form I, 1-{(2S)-2-amino-4-[2,4-bis(trifluoromethyl)-5,8-dihydropyrido[3,4-d]pyrimidin-7(6H)-yl]-4-oxo-butyl}-5,5-difluoropiperidin-2-one tartrate], in data set [1], the Bulk-density is 0.45 g/mL. The Tap-density in data set [1] was found to be 0.54 g/mL. The stability (HPLC) in data set [2] (40° C./75% RH, 0 week) amounted to 99.4%; in data set [2] (40° C./75% RH, 2 weeks), 99.3%; in data set [2] (40° C./75% RH, 4 weeks), 99.2%; in data set [2] (40° C./75% RH, 8 weeks) it was 99.2%; in data set [2] (60° C./5% RH, 0 week) it was 99.4%; in data set [2] (60° C./5% RH, 2 weeks) it was 98.8%. In addition, the stability (HPLC) in data set [2] (60° C./5% RH, 4 weeks) was determined as 98.6%; in data set [2] (60° C./5% RH, 8 weeks) it was 98.4%. Also, the “change of crystal form with the change of humidity” value in data set [3] was “not changed”. Besides, the “weight change according to the change” value in data set [3] is on record as at most 0.8%. For the same compound, in data set [4] (40±2° C., 75±5% RH or 60±2° C., 5±5% RH, up to 8 weeks), the “change of the crystal form by XRD analysis” value is reported as “did not show any change”.
